Structures are written as SMILES.

For the assay, the target named is T1, HPK1 kinase (aa1-346, Life Technologies) (Homo sapiens, UniProt Q92918).
T1 construct: HPK1 kinase (aa1-346, Life Technologies); purchased Life Technologies
T1 sequence (Q92918 1-346): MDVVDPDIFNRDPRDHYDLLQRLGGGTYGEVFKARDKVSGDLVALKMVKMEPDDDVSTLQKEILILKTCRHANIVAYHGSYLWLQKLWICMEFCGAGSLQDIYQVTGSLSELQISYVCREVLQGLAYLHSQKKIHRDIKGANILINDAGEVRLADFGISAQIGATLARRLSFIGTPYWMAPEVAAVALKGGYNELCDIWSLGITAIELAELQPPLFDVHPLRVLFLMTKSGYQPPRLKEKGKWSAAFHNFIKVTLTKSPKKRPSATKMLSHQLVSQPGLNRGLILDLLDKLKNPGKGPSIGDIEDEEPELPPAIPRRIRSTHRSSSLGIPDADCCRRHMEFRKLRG
Kind of assay: HPK Kinase Activity Assay at 1 mM ATP (TR-FRET). It counts as biochemical. To be noted: HPK1 kinase 40 nM, 0.5 μM STK1 substrate, read-out: Enzymatic activity IC50. On the procedure:
HPK Kinase Activity Assay at 1 mM ATP
Compounds disclosed herein were tested for inhibition of HPK1 kinase (aa1-346, Life Technologies) activity in assays based on the time-resolved fluorescence-resonance energy transfer (TR-FRET) methodology. The assays were carried out in 384-well low volume black plates in a reaction mixture containing HPK1 kinase (40 nM), 1 mM ATP, 0.5 μM STK1 substrate and 0-10 μM compound in buffer containing 50 mM HEPES, 0.01% BSA, 0.1 mM Orthovanadate, 10 mM MgCl2, 1 mM DTT, pH=7.0, 0.005% Tween-20. The kinase was incubated with the compounds disclosed herein or DMSO for 60 minutes at room temperature and the reaction was initiated by the addition of ATP and STK1 substrate. After reaction at room temperature for 120 minutes, an equal volume of stop/detection solution was added according to the manufacture's instruction (CisBio). The stop/detection solution contained STK Antibody-Cryptate and XL665-conjugated streptavidin in Detection Buffer. The TR-FRET signals (ratio of fluorescence emission at 665 nm over emission at 620 nm with excitation at 337 nm wavelength) were recorded on a PHERAstar FS plate reader (BMG Labtech). Phosphorylation of STK1 substrate led to the binding of STK Antibody-Cryptate to the biotinylated STK1 substrate, which places fluorescent donor (Eu^3+ crypate) in close proximity to the accepter (Streptavidin-XL665), thus resulting in a high degree of fluorescence resonance energy transfer. The inhibition of HPK1 in presence of increasing concentrations of compounds was calculated based on the ratio of fluorescence at 665 nm to that at 620 nm. The IC50 for each compound was derived from fitting the data to the four-parameter logistic equation by Graphpad Prism software.
On the technique in general: TR-FRET usually uses a lanthanide donor and a delayed reading to cut background.
In the case of `Cc1cc(-c2cnc(N)c(Oc3cnn(C4CCN(C)C4)c3)n2)cc2c1CCN(C)C2` (single isomer, unassigned) [Example 280A], the half-maximal inhibitory concentration (IC50) amounted to 12 nM.
Turning to `Cc1cc(-c2cnc(N)c(Oc3cnn(C4CCN(C)C4)c3)n2)cc2c1CCN(C)C2` (single isomer, unassigned) [Example 280B], the IC50 came to 51 nM.
For the compound `Cc1cc(-c2cnc(N)c(OCc3ccncc3)n2)cc2c1CCN(C)C2` [Example 1, 5-(2,5-dimethyl-1,2,3,4-tetrahydroisoquinolin-7-yl)-3-(pyridin-4-ylmethoxy)pyrazin-2-amine], the IC50 was 29 nM.
Under `Cc1cc(-c2cnc(N)c(OCc3ccncn3)n2)cc2c1CCN(C)C2` [Example 3, 5-(2,5-dimethyl-1,2,3,4-tetrahydroisoquinolin-7-yl)-3-(pyrimidin-4-ylmethoxy)pyrazin-2-amine] stands 364 nM; under `Cc1cc(-c2cnc(N)c(-n3ncc4cc(CO)ccc43)n2)cc2c1CCN(C)C2` [Example 4, (1-(3-amino-6-(2,5-dimethyl-1,2,3,4-tetrahydroisoquinolin-7-yl)pyrazin-2-yl)-1H-indazol-5-yl)methanol], 75 nM; under `Cc1cc(-c2cnc(N)c(-n3cc4cc(CO)ccc4n3)n2)cc2c1CCN(C)C2` [Example 5, (2-(3-amino-6-(2,5-dimethyl-1,2,3,4-tetrahydroisoquinolin-7-yl)pyrazin-2-yl)-2H-indazol-5-yl)methanol], 172 nM.
In the case of `Cc1cc(-c2cnc(N)c(-n3cc(O)cn3)n2)cc2c1CCN(C)C2` [Example 7, 1-(3-amino-6-(2,5-dimethyl-1,2,3,4-tetrahydroisoquinolin-7-yl)pyrazin-2-yl)-1H-pyrazol-4-ol], the IC50 stood at 15 nM.
Under `Cc1cc(-c2cnc(N)c(OCc3ccncc3F)n2)cc2c1CCN(C)C2` [Example 8, 5-(2,5-dimethyl-1,2,3,4-tetrahydroisoquinolin-7-yl)-3-((3-fluoropyridin-4-yl)methoxy)pyrazin-2-amine] stands 46 nM; under `Cc1cnccc1COc1nc(-c2cc(C)c3c(c2)CN(C)CC3)cnc1N` [Example 9, 5-(2,5-dimethyl-1,2,3,4-tetrahydroisoquinolin-7-yl)-3-((3-methylpyridin-4-yl)methoxy)pyrazin-2-amine], 17 nM.
`Cc1cc(-c2cnc(N)c(OCc3ccnc(N)c3)n2)cc2c1CCN(C)C2` [Example 10, 3-((2-aminopyridin-4-yl)methoxy)-5-(2,5-dimethyl-1,2,3,4-tetrahydroisoquinolin-7-yl)pyrazin-2-amine]: the IC50 worked out at 5.2 nM.
On to `Cc1cc(-c2cnc(N)c(OCc3ccnc(C#CC4CC4)c3)n2)cc2c1CCN(C)C2` [Example 11, 3-((2-(cyclopropylethynyl)pyridin-4-yl)methoxy)-5-(2,5-dimethyl-1,2,3,4-tetrahydroisoquinolin-7-yl)pyrazin-2-amine], for which the IC50 was found to be 50 nM.
In the case of `Cc1cc(-c2cnc(N)c(OCc3cc(Cl)ncc3OC(C)C)n2)cc2c1CCN(C)C2` [Example 12, 3-((2-chloro-5-isopropoxypyridin-4-yl)methoxy)-5-(2,5-dimethyl-1,2,3,4-tetrahydroisoquinolin-7-yl)pyrazin-2-amine] it was 27 nM; in that of `Cc1cc(-c2cnc(N)c(OC3CCc4cnccc43)n2)cc2c1CCN(C)C2` (stereo not drawn) [Example 13, 3-(6,7-dihydro-5H-cyclopenta[c]pyridin-5-yloxy)-5-(2,5-dimethyl-1,2,3,4-tetrahydroisoquinolin-7-yl)pyrazin-2-amine], 62 nM; in that of `Cc1cc(-c2cnc(N)c(OCc3ccnc(C#CC(C)(C)O)c3)n2)cc2c1CCN(C)C2` [Example 14, 4-(4-(((3-amino-6-(2,5-dimethyl-1,2,3,4-tetrahydroisoquinolin-7-yl)pyrazin-2-yl)oxy)methyl)pyridin-2-yl)-2-methylbut-3-yn-2-ol], 9.4 nM.
For the compound `Cc1cc(-c2cnc(N)c(OCc3cccnc3)n2)cc2c1CCN(C)C2` [Example 15, 5-(2,5-dimethyl-1,2,3,4-tetrahydroisoquinolin-7-yl)-3-(pyridin-3-ylmethoxy)pyrazin-2-amine], the IC50 was 157 nM.

The term IC50 denotes the concentration at which inhibition is half-maximal.

For the origin of these results see patent US12673933B2, “Aminopyrazine compounds as HPK1 inhibitor and the use thereof” (BEIGENE, LTD., priority 2019, dated 2026).
